Experimental data published in ChEMBL document CHEMBL4177603 (Bioorg Med Chem Lett, 2017).
Active and inactive are the calls of the source. No cut-off for these calls is given here.

Tests used:
[1] = target: High affinity choline transporter 1 (Homo sapiens) (UniProt Q9GZV3); experiment: Displacement of [3H]hemicholinium-3 from recombinant human choline transporter at 10 uM after 60 mins by scintillation counting method
[2] = target: Sodium channel protein type 3 subunit alpha (Homo sapiens, UniProt Q9NY46); experiment: Inhibition of human Nav1.3 expressed in HEK cells by patch clamp electrophysiology method; format: cell-based
[3] = Clearance in iv dosed mouse plasma; format: ADME, organism-based
[4] = Intrinsic clearance in rat liver microsomes; format: ADME, microsome; conditions: read-out: CLH
[5] = Intrinsic clearance in human liver microsomes; format: ADME, microsome; conditions: read-out: CLH
[6] = Inhibition of dog Nav1.7 expressed in HEK cells by automated patchXpress electrophysiology method; format: cell-based; conditions: HEK293
[7] = target: Cannabinoid receptor 1 (Homo sapiens) (UniProt P21554); experiment: Agonist activity at recombinant human CB1 receptor expressed in CHOK1 cells assessed as increase in cAMP accumulation at 10 uM after 20 mins by HTRF assay relative to control; format: functional, cell-based
[8] = target: Muscarinic acetylcholine receptor M3 (Homo sapiens) (UniProt P20309); experiment: Agonist activity at human M3 receptor expressed in CHOK1 cells assessed as increase in calcium flux at 10 uM by fluorimetric method relative to control; format: functional, cell-based
[9] = target: Beta-2 adrenergic receptor (Homo sapiens) (UniProt P07550); experiment: Antagonist activity at recombinant human beta2 receptor expressed in CHOK1 cells assessed as inhibition of isoproterenol-induced cAMP accumulation at 10 uM after 30 mins by HTRF assay relative to control; format: functional, cell-based
[10] = species: Rattus norvegicus; experiment: Displacement of [3H]nitrendipine from L-type calcium channel dihydropyridine (nifedipine) binding site in rat brain 10 uM measured after 90 mins by scintillation counting method
[11] = species: Homo sapiens; experiment: Displacement of [125I]alpha-bungarotoxin from human muscle type nAChR at 10 uM after 120 mins by scintillation counting method
[12] = test system: Mus musculus; experiment: Analgesic activity in mouse assessed as inhibition of formalin-induced pain at 0.28 to 5.4 mg/kg, iv pretreated for 90 mins followed by formalin addition measured up to 40 mins; format: functional, organism-based
[13] = Cytotoxicity against human THLE cells; format: cell-based
[14] = target: Cholecystokinin receptor type A (Homo sapiens) (UniProt P32238); experiment: Agonist activity at recombinant human CCK1 receptor expressed in CHOK1 cells assessed as increase in cAMP accumulation at 10 uM after 30 mins by HTRF assay relative to control
Cholecystokinin receptor type A (Homo sapiens), sequence (P32238 whole entry, looked up): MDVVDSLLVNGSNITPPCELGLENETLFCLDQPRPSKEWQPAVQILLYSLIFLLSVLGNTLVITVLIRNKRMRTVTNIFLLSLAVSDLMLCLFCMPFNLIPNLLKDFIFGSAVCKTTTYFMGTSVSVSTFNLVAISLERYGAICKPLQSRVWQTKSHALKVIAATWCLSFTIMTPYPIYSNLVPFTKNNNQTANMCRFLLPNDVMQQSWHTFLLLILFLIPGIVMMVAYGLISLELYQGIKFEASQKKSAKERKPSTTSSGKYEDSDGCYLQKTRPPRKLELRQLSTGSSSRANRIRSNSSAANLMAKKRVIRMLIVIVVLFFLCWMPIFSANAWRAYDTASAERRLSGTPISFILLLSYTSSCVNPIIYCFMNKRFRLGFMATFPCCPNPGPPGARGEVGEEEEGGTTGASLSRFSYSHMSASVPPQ

Beta-2 adrenergic receptor (Homo sapiens), sequence (P07550 whole entry, looked up): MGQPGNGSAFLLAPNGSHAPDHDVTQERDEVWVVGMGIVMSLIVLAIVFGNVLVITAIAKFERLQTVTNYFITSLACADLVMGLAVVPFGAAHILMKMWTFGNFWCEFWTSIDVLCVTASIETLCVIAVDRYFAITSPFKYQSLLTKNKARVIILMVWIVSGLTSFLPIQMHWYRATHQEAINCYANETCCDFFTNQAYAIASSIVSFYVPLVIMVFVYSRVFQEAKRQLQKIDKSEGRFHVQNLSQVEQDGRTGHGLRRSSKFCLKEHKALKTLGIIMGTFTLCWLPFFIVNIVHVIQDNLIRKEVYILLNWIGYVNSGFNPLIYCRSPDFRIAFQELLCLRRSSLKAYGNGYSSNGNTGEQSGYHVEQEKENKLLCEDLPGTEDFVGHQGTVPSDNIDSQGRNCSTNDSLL
Muscarinic acetylcholine receptor M3 (Homo sapiens), sequence (P20309 whole entry, looked up): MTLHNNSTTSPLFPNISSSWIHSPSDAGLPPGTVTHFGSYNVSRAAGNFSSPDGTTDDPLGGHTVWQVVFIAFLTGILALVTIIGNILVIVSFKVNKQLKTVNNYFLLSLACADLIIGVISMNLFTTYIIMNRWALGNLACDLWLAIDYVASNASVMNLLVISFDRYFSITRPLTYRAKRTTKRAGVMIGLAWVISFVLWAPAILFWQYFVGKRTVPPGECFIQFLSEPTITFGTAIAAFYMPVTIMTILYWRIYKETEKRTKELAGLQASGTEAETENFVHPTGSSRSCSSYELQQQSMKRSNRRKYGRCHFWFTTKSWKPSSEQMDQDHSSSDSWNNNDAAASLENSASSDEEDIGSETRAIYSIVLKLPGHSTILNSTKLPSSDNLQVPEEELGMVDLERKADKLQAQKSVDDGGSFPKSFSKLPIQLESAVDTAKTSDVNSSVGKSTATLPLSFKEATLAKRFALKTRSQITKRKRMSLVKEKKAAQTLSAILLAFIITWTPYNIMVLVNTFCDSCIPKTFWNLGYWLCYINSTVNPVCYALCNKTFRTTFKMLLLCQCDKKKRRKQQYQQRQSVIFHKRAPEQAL
Sodium channel protein type 3 subunit alpha, sequence (Q9NY46 whole entry): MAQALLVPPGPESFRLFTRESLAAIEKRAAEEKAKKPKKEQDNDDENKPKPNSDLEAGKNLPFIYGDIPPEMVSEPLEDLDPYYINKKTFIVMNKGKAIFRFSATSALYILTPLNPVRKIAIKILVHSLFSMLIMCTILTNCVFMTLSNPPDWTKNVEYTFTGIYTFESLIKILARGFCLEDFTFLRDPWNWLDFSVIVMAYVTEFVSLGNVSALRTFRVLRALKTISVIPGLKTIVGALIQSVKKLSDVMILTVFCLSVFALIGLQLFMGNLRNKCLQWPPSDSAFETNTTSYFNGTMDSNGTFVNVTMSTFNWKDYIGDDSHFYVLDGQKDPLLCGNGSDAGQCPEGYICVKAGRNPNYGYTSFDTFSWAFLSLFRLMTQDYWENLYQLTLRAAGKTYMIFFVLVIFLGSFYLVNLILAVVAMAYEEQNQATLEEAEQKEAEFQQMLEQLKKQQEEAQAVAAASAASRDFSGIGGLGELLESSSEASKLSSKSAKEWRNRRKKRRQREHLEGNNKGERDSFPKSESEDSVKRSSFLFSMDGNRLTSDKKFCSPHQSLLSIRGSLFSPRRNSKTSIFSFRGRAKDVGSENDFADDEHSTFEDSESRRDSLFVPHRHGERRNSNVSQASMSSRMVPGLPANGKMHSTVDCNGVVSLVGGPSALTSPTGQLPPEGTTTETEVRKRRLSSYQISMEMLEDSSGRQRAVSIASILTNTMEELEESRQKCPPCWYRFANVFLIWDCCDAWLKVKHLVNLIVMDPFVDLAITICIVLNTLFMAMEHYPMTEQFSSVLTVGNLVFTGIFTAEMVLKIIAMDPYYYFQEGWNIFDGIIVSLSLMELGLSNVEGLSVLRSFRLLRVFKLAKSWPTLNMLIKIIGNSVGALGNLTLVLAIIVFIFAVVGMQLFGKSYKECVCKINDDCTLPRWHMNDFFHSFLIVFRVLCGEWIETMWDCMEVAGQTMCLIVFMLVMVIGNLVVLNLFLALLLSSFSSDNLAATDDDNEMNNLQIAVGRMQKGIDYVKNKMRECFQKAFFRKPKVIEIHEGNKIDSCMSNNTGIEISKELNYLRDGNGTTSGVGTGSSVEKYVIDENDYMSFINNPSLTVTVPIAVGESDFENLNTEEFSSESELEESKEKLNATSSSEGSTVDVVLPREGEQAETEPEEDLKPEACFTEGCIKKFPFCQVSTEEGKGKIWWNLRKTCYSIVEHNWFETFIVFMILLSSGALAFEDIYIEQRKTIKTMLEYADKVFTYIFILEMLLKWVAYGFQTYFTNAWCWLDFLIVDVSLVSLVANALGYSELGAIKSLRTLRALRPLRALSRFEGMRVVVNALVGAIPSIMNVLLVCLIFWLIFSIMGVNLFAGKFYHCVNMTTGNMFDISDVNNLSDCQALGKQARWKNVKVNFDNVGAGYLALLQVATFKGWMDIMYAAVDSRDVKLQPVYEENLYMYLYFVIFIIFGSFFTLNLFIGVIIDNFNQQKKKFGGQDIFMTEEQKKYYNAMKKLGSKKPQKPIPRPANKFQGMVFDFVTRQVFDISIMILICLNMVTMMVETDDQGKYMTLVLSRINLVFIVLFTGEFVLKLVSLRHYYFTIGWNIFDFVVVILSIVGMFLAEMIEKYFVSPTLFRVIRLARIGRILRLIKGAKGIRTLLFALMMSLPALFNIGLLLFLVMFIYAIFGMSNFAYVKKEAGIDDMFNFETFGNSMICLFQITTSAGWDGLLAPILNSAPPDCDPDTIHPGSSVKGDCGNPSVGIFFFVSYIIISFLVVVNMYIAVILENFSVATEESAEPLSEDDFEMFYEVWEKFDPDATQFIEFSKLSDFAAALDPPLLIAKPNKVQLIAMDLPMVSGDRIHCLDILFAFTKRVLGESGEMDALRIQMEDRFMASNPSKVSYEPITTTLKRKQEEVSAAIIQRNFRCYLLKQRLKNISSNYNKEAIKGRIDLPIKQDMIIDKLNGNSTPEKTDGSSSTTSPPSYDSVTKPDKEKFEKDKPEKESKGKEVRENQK
Cannabinoid receptor 1 (Homo sapiens), sequence (P21554 whole entry): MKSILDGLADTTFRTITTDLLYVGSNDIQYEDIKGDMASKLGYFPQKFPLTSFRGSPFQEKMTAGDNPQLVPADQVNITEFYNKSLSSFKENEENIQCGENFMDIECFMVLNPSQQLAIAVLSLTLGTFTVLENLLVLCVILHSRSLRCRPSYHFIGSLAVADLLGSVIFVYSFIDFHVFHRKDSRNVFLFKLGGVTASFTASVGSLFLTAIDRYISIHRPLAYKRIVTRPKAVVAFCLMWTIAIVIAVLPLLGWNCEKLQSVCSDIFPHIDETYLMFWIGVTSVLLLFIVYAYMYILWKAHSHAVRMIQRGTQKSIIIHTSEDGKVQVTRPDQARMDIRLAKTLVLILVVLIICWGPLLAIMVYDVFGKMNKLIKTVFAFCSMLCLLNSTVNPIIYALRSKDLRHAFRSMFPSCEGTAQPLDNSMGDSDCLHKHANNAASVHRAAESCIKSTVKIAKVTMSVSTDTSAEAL
High affinity choline transporter 1 (Homo sapiens), sequence (Q9GZV3 whole entry): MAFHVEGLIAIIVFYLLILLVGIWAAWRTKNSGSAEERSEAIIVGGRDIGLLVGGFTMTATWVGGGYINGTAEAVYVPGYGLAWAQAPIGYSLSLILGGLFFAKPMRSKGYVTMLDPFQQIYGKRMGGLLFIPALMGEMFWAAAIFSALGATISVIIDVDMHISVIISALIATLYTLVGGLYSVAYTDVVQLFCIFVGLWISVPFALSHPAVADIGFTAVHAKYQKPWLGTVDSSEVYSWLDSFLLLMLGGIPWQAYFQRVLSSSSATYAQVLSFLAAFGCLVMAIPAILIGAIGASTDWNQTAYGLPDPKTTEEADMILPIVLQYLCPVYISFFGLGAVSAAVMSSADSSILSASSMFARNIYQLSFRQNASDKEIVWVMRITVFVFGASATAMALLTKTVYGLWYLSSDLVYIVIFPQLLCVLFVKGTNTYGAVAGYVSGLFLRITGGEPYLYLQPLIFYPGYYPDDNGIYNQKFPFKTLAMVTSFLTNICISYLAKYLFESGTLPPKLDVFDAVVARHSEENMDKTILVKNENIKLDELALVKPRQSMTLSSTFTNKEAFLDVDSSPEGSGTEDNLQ

**Q.** Which inhibition [1] does the source give for `N#Cc1cc(S(=O)(=O)Nc2ncns2)ccc1Oc1ccc(-c2cccc(C(F)(F)F)c2)cc1-c1ccnc(CNCCC2CCNCC2)c1` here?
**A.** The inhibition was 99%.

**Q.** And the IC50 [2]?
**A.** The IC50 was 6.44 to 11.5 µM.

**Q.** What about the clearance [3] of the same compound?
**A.** The clearance was 36.5 mL/min/kg.

**Q.** And the microsomal CLint [4]?
**A.** The microsomal CLint was less than 14.1 µL/min/mg.

**Q.** What about the microsomal CLint [5] of the same compound?
**A.** Its microsomal CLint is less than 8 µL/min/mg.

**Q.** What about the IC50 [6] of the same compound?
**A.** Its IC50 is less than 0.03 nM.

**Q.** What about the Activity [7] of the same compound?
**A.** The Activity was -7%.

**Q.** What about the Activity [8] of the same compound?
**A.** Its Activity is 8%.

**Q.** What about the inhibition [9] of the same compound?
**A.** The inhibition was 11%.

**Q.** And the inhibition [10]?
**A.** Its inhibition is 31%.

**Q.** What about the inhibition [11] of the same compound?
**A.** Its inhibition is 21%.

**Q.** And the inhibition [12]?
**A.** The inhibition was “inactive”.

**Q.** And the IC50 [13]?
**A.** The IC50 was 108 µM.

**Q.** What about the Activity [14] of the same compound?
**A.** Its Activity is 4%.
